From ChEMBL document CHEMBL1201862, “PubChem BioAssay data set” (2004)
Where a name gives a salt, the structure may show the parent alone.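 Interpolation was linear, between the two tested concentrations surrounding the appropriate level; five concentrations were tested over 48 hours in 96-well plates. GI50: concentration for 50% inhibition of growth.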 The source made the active and inactive calls. Cut-off read from the data, not from the text of the source: active = GI50 up to about 1.1 µM and inactive = higher. Residues, ends and D or L forms follow the SMILES beside them. *: point of attachment. Tfa = O=C(C(F)(F)F)*

How the values were obtained:
Test in all cases: NCI-60 cell line screen, 48 h
ACHN = test system: ACHN
BT-549 = test system: BT-549
CCRF-CEM = test system: CCRF-CEM
IGROV-1 = test system: IGROV-1
K562 = test system: K562
KM12 = test system: KM12
LOX IMVI = test system: LOX IMVI
M14 = test system: M14
MDA-N = test system: MDA-N
NCI/ADR-RES = test system: NCI/ADR-RES
OVCAR-4 = test system: OVCAR-4
OVCAR-8 = test system: OVCAR-8
PC-3 = test system: PC-3
RPMI-8226 = test system: RPMI-8226
RXF 393 = test system: RXF 393
SF-295 = test system: SF-295
SK-MEL-5 = test system: SK-MEL-5
SW-620 = test system: SW-620
UACC-62 = test system: UACC-62
SR = test system: SR

Compound	GI50 (ACHN)	GI50 (BT-549)	GI50 (CCRF-CEM)	GI50 (IGROV-1)	GI50 (K562)	GI50 (KM12)	GI50 (LOX IMVI)	GI50 (M14)	GI50 (MDA-N)	GI50 (NCI/ADR-RES)	GI50 (OVCAR-4)	GI50 (OVCAR-8)	GI50 (PC-3)	GI50 (RPMI-8226)	GI50 (RXF 393)	GI50 (SF-295)	GI50 (SK-MEL-5)	GI50 (SW-620)	GI50 (UACC-62)	GI50 (SR)
COc1cc(OC)cc(-c2nc(O)c3ccccc3n2)c1	> 100 µM (inactive)	> 100 µM (inactive)	> 100 µM (inactive)	93.1 µM (inactive)	> 100 µM (inactive)	> 100 µM (inactive)	> 100 µM (inactive)	> 100 µM (inactive)	> 100 µM (inactive)	40.7 µM (inactive)	> 100 µM (inactive)	24.6 µM (inactive)	> 100 µM (inactive)	> 100 µM (inactive)	29.8 µM (inactive)	29 µM (inactive)	> 100 µM (inactive)	> 100 µM (inactive)	> 100 µM (inactive)	
CC(=O)Oc1cc2c(cc1OC(C)=O)[C@H]1CC[C@]3(C)[C@@H](OC(C)=O)CC[C@H]3[C@@H]1CC2	3.56 µM (inactive)	1.99 µM (inactive)		3.77 µM (inactive)	2.23 µM (inactive)	8.91 µM (inactive)	2.92 µM (inactive)	6 µM (inactive)	0.773 µM (active)	9.53 µM (inactive)	5.61 µM (inactive)	6.7 µM (inactive)	9.29 µM (inactive)	1.92 µM (inactive)	4.5 µM (inactive)	4.49 µM (inactive)	5.62 µM (inactive)	1.9 µM (inactive)		0.45 µM (active)
CC(=O)Oc1ccc2c(c1OC(C)=O)CCC1C2=CC[C@]2(C)C(=O)CCC12 (stereo partly specified)	11.8 µM (inactive)	15.6 µM (inactive)	3.37 µM (inactive)	4.73 µM (inactive)	14 µM (inactive)	16 µM (inactive)		12.5 µM (inactive)	14.2 µM (inactive)	27.6 µM (inactive)	3.36 µM (inactive)	14.3 µM (inactive)	3.24 µM (inactive)	1 µM (active)		12.9 µM (inactive)	< 0.01 µM (active)	3.18 µM (inactive)	12.3 µM (inactive)	6.61 µM (inactive)
O=C1CS(=O)(=O)C(c2cccc(Oc3ccccc3)c2)N1c1cc(Cl)ccc1Cl (stereo unspecified)	19.7 µM (inactive)	19 µM (inactive)	15.4 µM (inactive)		27.4 µM (inactive)	17.8 µM (inactive)	14 µM (inactive)	20.4 µM (inactive)	16.7 µM (inactive)	25.7 µM (inactive)		19.8 µM (inactive)	14.7 µM (inactive)			22.9 µM (inactive)	15.8 µM (inactive)	34.4 µM (inactive)	15.5 µM (inactive)	16.8 µM (inactive)
Cn1c2c(c3ccccc31)CC(=O)N1CCCCC1C21OCCO1 (stereo unspecified)	> 100 µM (inactive)	> 100 µM (inactive)	> 100 µM (inactive)	> 100 µM (inactive)		> 100 µM (inactive)		> 100 µM (inactive)	> 100 µM (inactive)	> 100 µM (inactive)	> 100 µM (inactive)	> 100 µM (inactive)	> 100 µM (inactive)	> 100 µM (inactive)	> 100 µM (inactive)	> 100 µM (inactive)	> 100 µM (inactive)	> 100 µM (inactive)	> 100 µM (inactive)	> 100 µM (inactive)
CCN(CC)CCOC(c1cc(OC)ccc1OC)c1ccc2n1-c1ccccc1OC2 (stereo unspecified)	13.8 µM (inactive)	12.7 µM (inactive)	3.25 µM (inactive)	7 µM (inactive)	7.23 µM (inactive)	16.5 µM (inactive)	11.5 µM (inactive)	15.7 µM (inactive)	13.6 µM (inactive)	2.57 µM (inactive)	13.9 µM (inactive)	13.2 µM (inactive)	12.8 µM (inactive)	3.44 µM (inactive)	8.91 µM (inactive)	10.4 µM (inactive)	10.4 µM (inactive)	8.85 µM (inactive)	2.39 µM (inactive)	
O=C(c1ccc(O)c([N+](=O)[O-])c1)c1ccc(O)c([N+](=O)[O-])c1	> 100 µM (inactive)	33 µM (inactive)	31.9 µM (inactive)	> 100 µM (inactive)	50.1 µM (inactive)	35.2 µM (inactive)	> 100 µM (inactive)	> 100 µM (inactive)	53.7 µM (inactive)	43.6 µM (inactive)	> 100 µM (inactive)	> 100 µM (inactive)	66.5 µM (inactive)	3.33 µM (inactive)	> 100 µM (inactive)	46.3 µM (inactive)	> 100 µM (inactive)	55.6 µM (inactive)	37.1 µM (inactive)	
COc1ccc(CC2Cc3ccccc3CC(=O)N2)cc1OC (stereo unspecified)	> 100 µM (inactive)	37.4 µM (inactive)	28.1 µM (inactive)	> 100 µM (inactive)	44.9 µM (inactive)	39.2 µM (inactive)	32.8 µM (inactive)	54 µM (inactive)	52.5 µM (inactive)	27.5 µM (inactive)	57 µM (inactive)	75 µM (inactive)	40.3 µM (inactive)			86.7 µM (inactive)	14.3 µM (inactive)	> 100 µM (inactive)	48.2 µM (inactive)	67.9 µM (inactive)
CC1CNC(c2ccc(COc3ccc(C4=NC(C)CN4)cc3)cc2)=N1 (stereo unspecified)	> 100 µM (inactive)	> 100 µM (inactive)	59.6 µM (inactive)	> 100 µM (inactive)	15.5 µM (inactive)	27.4 µM (inactive)	> 100 µM (inactive)	60.1 µM (inactive)	82.2 µM (inactive)	> 100 µM (inactive)	> 100 µM (inactive)	72.6 µM (inactive)	32.1 µM (inactive)	29.9 µM (inactive)	58.6 µM (inactive)	43.4 µM (inactive)	28.6 µM (inactive)	67.9 µM (inactive)	26.2 µM (inactive)	
Cc1ccccc1-c1nc2c(N)nc(N)nc2nc1N	5.6 µM (inactive)	> 100 µM (inactive)	4.74 µM (inactive)	6.82 µM (inactive)	0.723 µM (active)	29.8 µM (inactive)	3.44 µM (inactive)	> 100 µM (inactive)	4.56 µM (inactive)	27 µM (inactive)	> 100 µM (inactive)	14.1 µM (inactive)	4.46 µM (inactive)	> 100 µM (inactive)		12.8 µM (inactive)	> 100 µM (inactive)	4.86 µM (inactive)	4.91 µM (inactive)	62.7 µM (inactive)
O=C(CC(C(=O)c1ccco1)c1cccs1)c1cccs1 (stereo unspecified)	58.7 µM (inactive)	46.5 µM (inactive)		65.6 µM (inactive)		40.6 µM (inactive)	37.3 µM (inactive)	46.6 µM (inactive)	37.6 µM (inactive)	36.1 µM (inactive)	36 µM (inactive)	44.7 µM (inactive)	42.5 µM (inactive)	55.7 µM (inactive)	51.3 µM (inactive)	38.8 µM (inactive)	32.4 µM (inactive)	94.8 µM (inactive)	36.3 µM (inactive)	34.6 µM (inactive)
CC(C)[C@@H]1NC(=O)[C@H]2N=C(O[C@@H]2C)[C@@H]2CCCN2C(=O)[C@H](Cc2ccccc2)NC(=O)[C@@H]2CSC(=N2)[C@@H](Cc2ccccc2)NC(=O)[C@@H]2CSC1=N2	> 50 µM (inactive)	> 50 µM (inactive)	16.3 µM (inactive)	> 50 µM (inactive)	9.38 µM (inactive)	25.6 µM (inactive)	23.7 µM (inactive)	> 50 µM (inactive)	> 50 µM (inactive)	> 50 µM (inactive)	19.8 µM (inactive)	> 50 µM (inactive)	21.8 µM (inactive)	9.29 µM (inactive)	39 µM (inactive)	34.6 µM (inactive)	> 50 µM (inactive)	> 50 µM (inactive)	> 50 µM (inactive)	
CC(C)CC(N)C(=O)NC(C(=O)NC(CCCNC(=N)N)C(=O)NC(CS)C(=O)NC1CSCC(C(=O)NC(Cc2ccccc2)C(=O)NC(C(=O)NC(CCCNC(=N)N)C(=O)O)C(C)C)NC(=O)C2CCCN2C(=O)C(CCCCN)NC(=O)C2CCCN2C(=O)C2CCCN2C(=O)C(Cc2ccc(O)cc2)NC(=O)C(CO)NC(=O)C(CCCCN)NC(=O)C(C(C)O)NC(=O)C(Cc2c[nH]c3ccccc23)NC1=O)C(C)C (stereo unspecified)	> 25 µM (inactive)	> 25 µM (inactive)	> 25 µM (inactive)	> 25 µM (inactive)	> 25 µM (inactive)	> 25 µM (inactive)	> 25 µM (inactive)	> 25 µM (inactive)	> 25 µM (inactive)	> 25 µM (inactive)	> 25 µM (inactive)	> 25 µM (inactive)	> 25 µM (inactive)	> 25 µM (inactive)		> 25 µM (inactive)	> 25 µM (inactive)	> 25 µM (inactive)	> 25 µM (inactive)	> 25 µM (inactive)
O=C(O)CC(NC(=O)C(F)(F)F)C(=O)NC(Cc1ccc(O)cc1)C(=O)O (stereo not drawn) (Tfa-Asp-Tyr-OH; configuration not given here)	> 50 µM (inactive)	> 50 µM (inactive)		> 50 µM (inactive)	> 50 µM (inactive)	> 50 µM (inactive)		> 50 µM (inactive)	> 50 µM (inactive)	> 50 µM (inactive)		> 50 µM (inactive)	> 50 µM (inactive)	> 50 µM (inactive)	> 50 µM (inactive)	> 50 µM (inactive)	> 50 µM (inactive)	> 50 µM (inactive)	> 50 µM (inactive)	> 50 µM (inactive)
